Reference: patent publication US10550143B2, “C,O-spiro aryl glycoside compounds, preparation therefor and use thereof” (SHANGHAI INSTITUTE OF MATERIA MEDICA, CHINESE ACADEMY OF …, priority 2015, dated 2020)

What was measured:
db/db mice [1] = experiment: Chronic administration, fasting blood glucose in db/db mice; format: in vivo, mouse; conditions: for fasting blood glucose Pre: before administration; for Hypoglycemic rate % week 1 / Hypoglycemic rate % week 2 / Hypoglycemic rate % week 3 / Hypoglycemic rate % week 4: fasting blood glucose
Protocol: Oral gavage administrated, daily dose volume was 10 mL/kg, administered once daily. Administration time was 9: 00-10:00 daily, and the administration period was 5 weeks.
The random blood glucose of mice in the normal control group, model control group, test substance administration group and positive control group were determined on the 7th, 14th, 21st, 28th day (9: 00-10:00) every week after the first administration, and food was removed and after 6 hours of starvation, the fasting blood glucose in each group was measured. Free drinking during the hunger process. The rate of decrease of blood glucose was calculated according to the following formula: Average hypoglycemic rate %=(Blood glucose of model control group−Blood glucose of administration group)/Model control group×100%

db/db mice [2] = experiment: Acute administration at multiple doses, random blood glucose in db/db mice; format: in vivo, mouse; conditions: for Blood glucose level 0 h: before administration
Protocol: (1) 127 db/db mice (half male and half female) entered the animal laboratory of the institute at 7 weeks of age and were grouped at 10 weeks of age. Random blood glucose and random body weight of all db/db mice were determined at 9:00 am, and then fasted for 6 hours (free drinking). Fasting blood glucose and fasting body weight were determined, and blood was collected (10 μl EDTA+20 μl tail blood, centrifugated to collect supernatant) to determine the insulin content. […] The db/db mice were once orally administered at a dose of 10 mL/kg. Blood glucose levels were measured before administration, and at 1 h, 2 h, 3 h, 4 h, 6 h after administration, and the administration times and body weights were recorded. Mice took food and water freely during the experiment.
Average hypoglycemic rate %=(model control group−administration group)/(model control group−blank control group)*100%

In the case of CCc1ccc(Cc2cc3c(cc2Cl)CO[C@]32O[C@H](C)[C@@H](O)[C@H](O)[C@H]2O)s1 [Example A28, (1S,3′R,4′S,5′S,6′R)-6′-methyl-6-((5-ethylthienyl)-2-methyl)-5-chloro-3′,4′,5′,6′-tetrahydro-3H-spiro[isobenzofuran-1,2′-pyran]-3′,4′,5′-triol], the “fasting blood glucose week 2” value (db/db mice [1]; 3 mg/kg once daily oral) is reported as 6.8 ± 0.6 mmol/L, the “fasting blood glucose week 3” value (db/db mice [1]; 3 mg/kg once daily oral) is reported as 8.1 ± 0.5 mmol/L and the “fasting blood glucose week 4” value (db/db mice [1]; 3 mg/kg once daily oral) is reported as 8.5 ± 0.6 mmol/L. For the same compound, the “fasting blood glucose Pre” value (db/db mice [1]; 3 mg/kg once daily oral) was 13.5 ± 1.5 mmol/L, the “fasting blood glucose week 1” value (db/db mice [1]; 10 mg/kg once daily oral) was 7.6 ± 0.6 mmol/L and the “fasting blood glucose week 2” value (db/db mice [1]; 10 mg/kg once daily oral) was 6.9 ± 0.5 mmol/L. The “fasting blood glucose week 3” value (db/db mice [1]; 10 mg/kg once daily oral) was 7.2 ± 0.6 mmol/L, the “fasting blood glucose week 4” value (db/db mice [1]; 10 mg/kg once daily oral) was 7.3 ± 0.5 mmol/L and the “fasting blood glucose Pre” value (db/db mice [1]; 10 mg/kg once daily oral) was 13.8 ± 1.2 mmol/L. The “Hypoglycemic rate % week 1” value (db/db mice [1]; 0.3 mg/kg once daily oral) was 21.4%, the “Hypoglycemic rate % week 2” value (db/db mice [1]; 0.3 mg/kg once daily oral) was 52.3% and the “Hypoglycemic rate % week 3” value (db/db mice [1]; 0.3 mg/kg once daily oral) was 30.6%. For the same compound, the “Hypoglycemic rate % week 4” value (db/db mice [1]; 0.3 mg/kg once daily oral) was 21.1%, the “Hypoglycemic rate % week 1” value (db/db mice [1]; 1 mg/kg once daily oral) was 35.0% and the “Hypoglycemic rate % week 2” value (db/db mice [1]; 1 mg/kg once daily oral) was 57.2%. For the same compound, the “Hypoglycemic rate % week 3” value (db/db mice [1]; 1 mg/kg once daily oral) was 41.5%, the “Hypoglycemic rate % week 4” value (db/db mice [1]; 1 mg/kg once daily oral) was 37.8% and the “Hypoglycemic rate % week 1” value (db/db mice [1]; 3 mg/kg once daily oral) was 36.2%. For the same compound, the “Hypoglycemic rate % week 2” value (db/db mice [1]; 3 mg/kg once daily oral) was 69.2%, the “Hypoglycemic rate % week 3” value (db/db mice [1]; 3 mg/kg once daily oral) was 54.2% and the “Hypoglycemic rate % week 4” value (db/db mice [1]; 3 mg/kg once daily oral) was 46.8%. The “Hypoglycemic rate % week 1” value (db/db mice [1]; 10 mg/kg once daily oral) was 43.2%, the “Hypoglycemic rate % week 2” value (db/db mice [1]; 10 mg/kg once daily oral) was 68.9% and the “Hypoglycemic rate % week 3” value (db/db mice [1]; 10 mg/kg once daily oral) was 59.5%. For the same compound, the “Hypoglycemic rate % week 4” value (db/db mice [1]; 10 mg/kg once daily oral) was 54.5%, the “effective dose, fasting blood glucose, random blood glucose and HbA1c reduction” value (db/db mice [1]; four weeks chronic administration) was 0.3 mg/kg and the “effective dose, reduction of blood glucose levels” value (db/db mice [2]; single administration, within 6 h) was 3 mg/kg. The AUC0-6 h (db/db mice [2]; single oral 0.3 mg/kg) was 103.7 ± 7.7 mmol·h/L, the “Blood glucose level 1 h” value (db/db mice [2]; single oral 0.3 mg/kg) was 19.4 ± 1.2 mmol/L and the “Blood glucose level 2 h” value (db/db mice [2]; single oral 0.3 mg/kg) was 18.0 ± 0.9 mmol/L. The “Blood glucose level 3 h” value (db/db mice [2]; single oral 0.3 mg/kg) was 17.2 ± 1.5 mmol/L, the “Blood glucose level 4 h” value (db/db mice [2]; single oral 0.3 mg/kg) was 16.5 ± 1.5 mmol/L and the “Blood glucose level 6 h” value (db/db mice [2]; single oral 0.3 mg/kg) was 15.4 ± 1.7 mmol/L. For the same compound, the “Blood glucose level 0 h” value (db/db mice [2]; single oral 0.3 mg/kg) was 17.9 ± 1.5 mmol/L, the AUC0-6 h (db/db mice [2]; single oral 1 mg/kg) was 87.3 ± 4.8 mmol·h/L and the “Blood glucose level 1 h” value (db/db mice [2]; single oral 1 mg/kg) was 15.9 ± 0.7 mmol/L. For the same compound, the “Blood glucose level 2 h” value (db/db mice [2]; single oral 1 mg/kg) was 13.7 ± 0.6 mmol/L, the “Blood glucose level 3 h” value (db/db mice [2]; single oral 1 mg/kg) was 14.6 ± 0.9 mmol/L and the “Blood glucose level 4 h” value (db/db mice [2]; single oral 1 mg/kg) was 14.9 ± 1.1 mmol/L. The “Blood glucose level 6 h” value (db/db mice [2]; single oral 1 mg/kg) was 12.3 ± 0.9 mmol/L, the “Blood glucose level 0 h” value (db/db mice [2]; single oral 1 mg/kg) was 16.8 ± 1.2 mmol/L and the AUC0-6 h (db/db mice [2]; single oral 3 mg/kg) was 62.7 ± 3.3 mmol·h/L. For the same compound, the “Blood glucose level 1 h” value (db/db mice [2]; single oral 3 mg/kg) was 11.2 ± 1.2 mmol/L, the “Blood glucose level 2 h” value (db/db mice [2]; single oral 3 mg/kg) was 9.1 ± 0.5 mmol/L and the “Blood glucose level 3 h” value (db/db mice [2]; single oral 3 mg/kg) was 10.2 ± 0.7 mmol/L. The “Blood glucose level 4 h” value (db/db mice [2]; single oral 3 mg/kg) was 8.7 ± 0.6 mmol/L, the “Blood glucose level 6 h” value (db/db mice [2]; single oral 3 mg/kg) was 9.7 ± 0.8 mmol/L and the “Blood glucose level 0 h” value (db/db mice [2]; single oral 3 mg/kg) was 18.7 ± 1.2 mmol/L. For the same compound, the AUC0-6 h (db/db mice [2]; single oral 10 mg/kg) was 47.2 ± 1.7 mmol·h/L, the “Blood glucose level 1 h” value (db/db mice [2]; single oral 10 mg/kg) was 8.2 ± 0.4 mmol/L and the “Blood glucose level 2 h” value (db/db mice [2]; single oral 10 mg/kg) was 6.0 ± 0.6 mmol/L. The “Blood glucose level 3 h” value (db/db mice [2]; single oral 10 mg/kg) was 7.1 ± 0.5 mmol/L, the “Blood glucose level 4 h” value (db/db mice [2]; single oral 10 mg/kg) was 7.2 ± 0.6 mmol/L and the “Blood glucose level 6 h” value (db/db mice [2]; single oral 10 mg/kg) was 6.1 ± 0.4 mmol/L. The “Blood glucose level 0 h” value (db/db mice [2]; single oral 10 mg/kg) was 18.3 ± 1.7 mmol/L.
